In article PMC11211886 (Frontiers in Pharmacology, 2024):
Several values for one entry are separate records, joined by “and”; a condition that tells them apart may be missing. Equal values may be shown once. Each block holds one compound with its values, some of them ahead of it.

What was measured:
[1] = Excretion/mass balance of [14C] amdizalisib in BDI and BDC rats; format: in vivo, SD rat; conditions: for Cumulative recovery of radioactivity, Bile / Cumulative recovery of radioactivity, Cage washing / Cumulative recovery of radioactivity, Feces / Cumulative recovery of radioactivity, Total recovery / Cumulative recovery of radioactivity, Urine: PO 5 mg/100 μCi/kg; for unchanged drug recovered in bile / unchanged drug recovered in feces / unchanged drug recovered in urine: % of administered dose
Experimental: Rats were divided into seven groups according to the sampling time points, with six rats (male: female = 1: 1) in each group, except that Group 1 h used three male rats and Group 2 h and Group 72 h used three female rats, respectively. […] Plasma and tissue samples were collected at 0.5, 1, 6, 24, and 48 h after dosing for male rats and at 0.5, 2, 6, 24, 48, and 72 h after dosing for female rats. […] After blood collection, the rats were sacrificed, and 18 tissues, namely, brain, breast, skin, fat, testis, ovary, bladder, pancreas, skeletal muscle, heart, lung, kidney, liver, stomach, small intestine, colon, spleen, and spinal cord, were removed from the rats at designated time points. These tissues were washed with saline and dried with filter paper. Aliquots of tissues were accurately weighed and then homogenized in 50% (v/v) methanol/water (10 mL/1 g tissue). […] Twelve rats (207–277 g) were divided into the bile-duct cannulation (BDC) group and the bile-duct intact (BDI) group, with six rats (male: female = 1:1) in each group. […] Urine and feces were collected at pre-dose (0) and 24 h through 168 h post-dose (the first 24 h interval split into 0–8 and 8–24 h for urine) for BDI rats. For BDC rats, urine and feces were collected at pre-dose (0) and 72 h post-dose (the first 24 h interval split into 0–8 and 8–24 h for urine), and bile was collected at pre-dose (0), 0–4, 4–8, 8–24, 24–48, and 48–72 h post-dose. Cage-washing fluids were collected at 24 h intervals until the last sampling time point for both groups. Another BDI rat was orally administered a blank vehicle (0.5% CMC-Na, 0.5 g/100 mL), and urine and feces were collected 24 h post-dose. The weight of the collected samples was recorded. Samples were stored in a −20°C freezer until analysis.
For the determination of drug-derived radioactivity in the excretion study in SD rats, urine (0.1 g), bile (0.025 g), and cage wash samples (1 g) were mixed well with scintillation solution (5 mL for urine and cage wash samples; 10 mL for bile samples) and directly analyzed by a liquid scintillation counter (LSC, Perkin Elmer, Waltham, MA, United States). An appropriate amount of isopropanol: water (1:1, v/v) was added to the feces samples and thoroughly homogenized. Pooled fecal homogenate (0.3 g) was combusted in a Sample Oxidizer 501 (RJ Harvey Instrument, Tappan, NY, USA), and the generated ^14CO2 was trapped in a 15 mL scintillation solution and further analyzed for radioactivity by LSC using a Tri-Carb 3110 TR counter (Perkin Elmer, Waltham, MA, United States). The radioactive concentrations of urine, bile, feces, and cage washings were calculated with the counted disintegration per minute (DPM). The percentage of administered dose recovered (% dose recovered) was calculated using the following equation: % dose recovered=Total radioactivity DPM in sample/ radioactivity DPM in dosing formulation×100.

OAT3 = molecular target: T1, OAT3 (Homo sapiens, UniProt Q8TCC7); test: OAT3 inhibition, estrone 3-sulfate uptake in transfected HEK293 cells
T1 sequence (Q8TCC7 1-542): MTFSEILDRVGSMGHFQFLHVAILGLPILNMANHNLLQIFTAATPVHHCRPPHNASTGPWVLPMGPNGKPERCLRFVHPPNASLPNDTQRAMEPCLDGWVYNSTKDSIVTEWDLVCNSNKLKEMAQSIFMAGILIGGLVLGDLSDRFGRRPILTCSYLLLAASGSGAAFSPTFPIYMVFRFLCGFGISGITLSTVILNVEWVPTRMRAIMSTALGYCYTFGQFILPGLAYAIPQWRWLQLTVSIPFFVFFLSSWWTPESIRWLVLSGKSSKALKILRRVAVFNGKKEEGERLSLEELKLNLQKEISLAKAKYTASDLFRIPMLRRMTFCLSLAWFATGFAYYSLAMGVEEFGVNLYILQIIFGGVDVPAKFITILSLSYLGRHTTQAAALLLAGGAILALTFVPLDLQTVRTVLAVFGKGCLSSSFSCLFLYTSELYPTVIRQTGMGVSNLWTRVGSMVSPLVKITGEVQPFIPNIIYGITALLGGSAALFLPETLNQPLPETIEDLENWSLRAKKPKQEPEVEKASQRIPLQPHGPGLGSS
Experimental: (§1) The pre-incubation solutions were removed, and incubation solutions containing the inhibitors and probe substrates (or transport buffer containing an equal volume of vehicle control and probe substrates) were added and incubated at 37°C for 2 min (5 min for OATP1B3). The probe substrate for OAT1 was 4-aminohippuric acid (10 μM), for OAT3 was estrone 3-sulfate (10 μM), for OCT2 was metformin (100 μM), for OATP1B1 was β-estradiol 17-(β-D-glucuronide) (5 μM), for OATP1B3 was β-estradiol 17-(β-D-glucuronide) (10 μM), and for MATE1 and MATE2-K was tetraethylammonium (10 μM). After incubation, cells were washed three times with ice-cold transport buffer (25 mM HEPES, pH 7.4, pH 8.0 for overexpressing MATE1 and MATE2-K HEK293 cells) and lysed in distilled water. The concentrations of probe substrates were determined by LC-MS/MS, and a BCA Kit (Solarbio ®Life Sciences, Beijing, China) was used to determine the protein content in the cell lysate.
(§2) where C is the concentration of the drug in the cell lysate (nM), P is the protein concentration of the cell lysate (mg/mL), and T is the incubation time (minute). Uptake ratetest compound is the uptake rate of the substrate in the presence of the test compound. Uptake ratevehicle control is the uptake rate of the substrate in the presence of the vehicle control. Uptake ratepassive is the uptake rate of the substrate in the presence of the positive inhibitor at the top test concentration.

MATE1 = molecular target: T2, MATE1 (Homo sapiens, UniProt Q96FL8); test: MATE1 inhibition, tetraethylammonium uptake in transfected HEK293 cells
T2 sequence (Q96FL8 1-570): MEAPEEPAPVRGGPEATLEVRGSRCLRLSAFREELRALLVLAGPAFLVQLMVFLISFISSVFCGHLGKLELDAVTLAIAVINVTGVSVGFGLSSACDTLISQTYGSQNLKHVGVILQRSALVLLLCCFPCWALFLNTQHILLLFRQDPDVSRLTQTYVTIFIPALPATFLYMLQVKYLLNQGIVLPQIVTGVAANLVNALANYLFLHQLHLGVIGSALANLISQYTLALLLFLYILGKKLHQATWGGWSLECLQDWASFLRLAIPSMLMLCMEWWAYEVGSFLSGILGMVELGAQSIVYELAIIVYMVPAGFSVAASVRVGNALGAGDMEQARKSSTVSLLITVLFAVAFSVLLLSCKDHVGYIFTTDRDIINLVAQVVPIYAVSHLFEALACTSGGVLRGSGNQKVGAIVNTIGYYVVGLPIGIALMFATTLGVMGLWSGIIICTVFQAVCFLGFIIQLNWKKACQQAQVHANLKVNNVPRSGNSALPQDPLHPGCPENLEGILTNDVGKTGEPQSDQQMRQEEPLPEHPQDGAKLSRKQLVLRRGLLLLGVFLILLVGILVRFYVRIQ
Experimental: as §1, §2

MATE2-K = MATE2-K (Homo sapiens, UniProt Q86VL8); test: MATE2-K inhibition, tetraethylammonium uptake in transfected HEK293 cells
Chain of MATE2-K (Q86VL8 1-566 isoform Q86VL8-3): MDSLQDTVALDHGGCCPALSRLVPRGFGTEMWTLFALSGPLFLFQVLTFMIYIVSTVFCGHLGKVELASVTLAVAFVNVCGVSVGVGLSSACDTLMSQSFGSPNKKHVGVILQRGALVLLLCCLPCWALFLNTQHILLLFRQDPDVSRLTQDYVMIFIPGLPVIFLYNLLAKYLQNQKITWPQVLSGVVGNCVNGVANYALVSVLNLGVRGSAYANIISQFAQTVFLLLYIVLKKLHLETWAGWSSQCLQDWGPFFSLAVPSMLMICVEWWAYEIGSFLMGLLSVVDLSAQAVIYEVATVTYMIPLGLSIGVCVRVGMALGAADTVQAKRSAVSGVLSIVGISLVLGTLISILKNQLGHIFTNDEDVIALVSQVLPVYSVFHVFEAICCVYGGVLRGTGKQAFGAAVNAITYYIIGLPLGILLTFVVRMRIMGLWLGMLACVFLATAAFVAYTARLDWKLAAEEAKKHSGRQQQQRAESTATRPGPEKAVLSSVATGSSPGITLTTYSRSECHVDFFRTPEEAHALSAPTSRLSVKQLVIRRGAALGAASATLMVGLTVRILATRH
Experimental: as §1, §2

[2] = BDC rat, 0–72 h, female (n = 3)
[3] = BDC rat, 0–72 h, male and female (n = 6)
[4] = BDI rat, 0–168 h, female (n = 3)
[5] = BDI rat, 0–168 h, male and female (n = 6)

Cumulative recovery of radioactivity, Bile [1, 2]: 49.81 ± 2.07%
Cumulative recovery of radioactivity, Cage washing [1, 2]: 2.24 ± 1.90%
Cumulative recovery of radioactivity, Feces [1, 2]: 19.81 ± 4.98%
Cumulative recovery of radioactivity, Total recovery [1, 2]: 90.31 ± 0.91%
Cumulative recovery of radioactivity, Urine [1, 2]: 18.45 ± 4.01%
Cumulative recovery of radioactivity, Bile ([1]; BDC rat, 0–72 h, male (n = 3)): 58.17 ± 4.68%
Cumulative recovery of radioactivity, Cage washing ([1]; BDC rat, 0–72 h, male (n = 3)): 0.89 ± 0.37%
Cumulative recovery of radioactivity, Feces ([1]; BDC rat, 0–72 h, male (n = 3)): 8.98 ± 2.64%
Cumulative recovery of radioactivity, Total recovery ([1]; BDC rat, 0–72 h, male (n = 3)): 91.99 ± 1.88%
Cumulative recovery of radioactivity, Urine ([1]; BDC rat, 0–72 h, male (n = 3)): 23.96 ± 8.70%
Cumulative recovery of radioactivity, Bile [1, 3]: 53.99 ± 5.61%
Cumulative recovery of radioactivity, Cage washing [1, 3]: 1.57 ± 1.43%
Cumulative recovery of radioactivity, Feces [1, 3]: 14.40 ± 6.92%
Cumulative recovery of radioactivity, Total recovery [1, 3]: 91.15% and 91.15 ± 1.61%
Cumulative recovery of radioactivity, Urine [1, 3]: 21.20 ± 6.77%
fraction of the oral dose absorbed (bile + urine radioactivity) ([1]; BDC rats, 0–72 h, PO 5 mg/kg): at least 75.19%
Cumulative recovery of radioactivity, Cage washing [1, 4]: 4.72 ± 2.41%
Cumulative recovery of radioactivity, Feces [1, 4]: 71.15 ± 0.22%
Cumulative recovery of radioactivity, Total recovery [1, 4]: 91.59 ± 0.97%
Cumulative recovery of radioactivity, Urine [1, 4]: 15.72 ± 2.62%
Cumulative recovery of radioactivity, Cage washing ([1]; BDI rat, 0–168 h, male (n = 3)): 2.84 ± 0.17%
Cumulative recovery of radioactivity, Feces ([1]; BDI rat, 0–168 h, male (n = 3)): 63.14 ± 3.98%
Cumulative recovery of radioactivity, Total recovery ([1]; BDI rat, 0–168 h, male (n = 3)): 90.69 ± 1.16%
Cumulative recovery of radioactivity, Urine ([1]; BDI rat, 0–168 h, male (n = 3)): 24.71 ± 4.46%
Cumulative recovery of radioactivity, Cage washing [1, 5]: 3.78 ± 1.84%
Cumulative recovery of radioactivity, Feces [1, 5]: 67.15 ± 5.06%
Cumulative recovery of radioactivity, Total recovery [1, 5]: 91.14% and 91.14 ± 1.07%
Cumulative recovery of radioactivity, Urine [1, 5]: 20.21 ± 5.91%
total radioactivity recovered ([1]; BDI rats, within 48 h post-dose): over 80%
unchanged drug recovered in bile ([1]; female rats): 4.70%
unchanged drug recovered in feces ([1]; female rats): 29.80%
unchanged drug recovered in urine ([1]; female rats): 0.03%
unchanged drug recovered in bile ([1]; male rats): 2.69%
unchanged drug recovered in feces ([1]; male rats): 23.20%
unchanged drug recovered in urine ([1]; male rats): < 0.01%
Compound: [^14C] amdizalisib

Percentage transported (OAT3; OAT3, compound 100 μM): 0.00%
Uptake rate (OAT3; OAT3, compound 100 μM): 19.5±2.26 pmol/mg protein/min
inhibition at 2 min, 100 µM (OAT3; human, pH 7.4): 100%
Compound: CCCN(CCC)S(=O)(=O)c1ccc(C(=O)O)cc1 [Probenecid, reference compound]

IC50 (MATE1): 12.5 nM
Percentage transported (MATE1; MATE1, compound 1 μM): 0.00%
Uptake rate (MATE1; MATE1, compound 1 μM): 12.5±2.43 pmol/mg protein/min
inhibition at 2 min, 1 µM (MATE1; human, pH 8): 100%
IC50 (MATE2-K): 13.6 nM
Percentage transported (MATE2-K; MATE2-K, compound 1 μM): 0.00%
Uptake rate (MATE2-K; MATE2-K, compound 1 μM): 7.55±1.58 pmol/mg protein/min
inhibition at 2 min, 1 µM (MATE2-K; human, pH 8): 100%
Compound: CCc1nc(N)nc(N)c1-c1ccc(Cl)cc1 [Pyrimethamine, reference compound]
